Our source for the IC50 and GI50 values is patent US20230416232A1, “PYRIMIDINE COMPOUNDS, COMPOSITIONS, AND MEDICINAL APPLICATIONS THEREOF” (Blueprint Medicines Corporation, priority 2020, published 2023).

pIC50: −log10 of the molar value. Structures can show the parent of a compound that is named as a salt.

Common to all, as to type: cell-based
In one experiment the test system is A431 cells. Kind of experiment: Cellular proliferation (Alamar Blue) assay, A431 cells. The settings on record: Homo sapiens, A-431, 72 h, A431 cells; 72 hr; Alamar Blue; read-out: A431 IC50. Put shortly: (§1)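 Viability read-out: Alamar Blue, 3 h at 37 °C, after 72 h compound exposure (final 10-0.0005 μM, 3-fold serial). Seeding: 15,000 Ba/F3/well in RPMI/10% FBS; 5000 A431/well in DMEM/10% FBS; 16-18 h pre-incubation.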
Background: Resazurin is reduced to fluorescent resorufin, in cell work by metabolically active cells.

Experiment [1] addresses EGFR(D770_N771insSVD) expressing Ba/F3 stable cell line (Homo sapiens, UniProt P00533, DUP768-770, cells depend on it). Put plainly: Cellular proliferation (Alamar Blue) assay, EGFR(D770_N771insSVD) Ba/F3. The note with it: 72 hr, read-out: D770 IC50. The essentials: as §1
Experiment [2] deals with HER2 (A775_G776insYVMA) expressing Ba/F3 stable cell line (Homo sapiens, UniProt P04626, DUP772-775, cells depend on it). Put plainly: Cellular proliferation (Alamar Blue) assay, HER2 (A775_G776insYVMA) Ba/F3. The settings on record: HER2 (A775_G776insYVMA) Ba/F3 cells; 72 hr; Alamar Blue; read-out: YVMA IC50. The essentials: as §1
Experiment [3] addresses EGFR (A767_dupASV) expressing Ba/F3 stable cell line (Homo sapiens, UniProt P00533, DUP767-769, cells depend on it). Kind of experiment: Cellular proliferation (Alamar Blue) assay, EGFR (A767_dupASV) Ba/F3. The settings on record: 72 hr, read-out: A767 IC50. The essentials: as §1
Experiment [4] deals with EGFR (H773insNPH) expressing Ba/F3 stable cell line (Homo sapiens, UniProt P00533, DUP771-773, cells depend on it). Put plainly: Cellular proliferation (Alamar Blue) assay, EGFR (H773insNPH) Ba/F3. The settings on record: 72 hr, read-out: NPH IC50. The method, then: Cell line details: • 1. EGFR(D770_N771insSVD) expressing Ba/F3 stable cell line • 2. EGFR (A767_dupASV) expressing Ba/F3 stable cell line • 3. A431 cells • 4. EGFR (H773insNPH) expressing Ba/F3 stable cell line • 5. HER2 (A775_G776insYVMA) expressing Ba/F3 stable cell line
• 1. Seed cells at 5000 for A431 and 15,000 cells for Ba/F3 in 100 μL/well in complete media (for A431: DMEM with 10% FBS and for Ba/F3 cells: RPMI with 10% FBS) in 96-well tissue culture plate. Leave outer wells without cells for background measurements. Incubate at 37 degree Celsius in 5% CO2 humidified incubator for 16-18 hours. • 2. Add 0.025 ml of 5X concentration compound dilution or DMSO control. Final compound concentration range is 10-0.0005 μM prepared in 3-fold serial dilutions. Incubate for 72 hr at 37 degree Celsius in 5% CO2 humidified incubator. • 3. Add 0.0125 ml Alamar Blue™ reagent to each well with multi-channel pipette and tap gently on each side of the plate to mix. Incubate for 3 hours at 37 degree Celsius in 5% CO2 humidified incubator. • 4. […] Data analysis was performed using XLfit 5.5.0.5.

Chain of EGFR (H773insNPH) expressing Ba/F3 stable cell line (P00533 with tags, fused parts or gaps DUP771-773): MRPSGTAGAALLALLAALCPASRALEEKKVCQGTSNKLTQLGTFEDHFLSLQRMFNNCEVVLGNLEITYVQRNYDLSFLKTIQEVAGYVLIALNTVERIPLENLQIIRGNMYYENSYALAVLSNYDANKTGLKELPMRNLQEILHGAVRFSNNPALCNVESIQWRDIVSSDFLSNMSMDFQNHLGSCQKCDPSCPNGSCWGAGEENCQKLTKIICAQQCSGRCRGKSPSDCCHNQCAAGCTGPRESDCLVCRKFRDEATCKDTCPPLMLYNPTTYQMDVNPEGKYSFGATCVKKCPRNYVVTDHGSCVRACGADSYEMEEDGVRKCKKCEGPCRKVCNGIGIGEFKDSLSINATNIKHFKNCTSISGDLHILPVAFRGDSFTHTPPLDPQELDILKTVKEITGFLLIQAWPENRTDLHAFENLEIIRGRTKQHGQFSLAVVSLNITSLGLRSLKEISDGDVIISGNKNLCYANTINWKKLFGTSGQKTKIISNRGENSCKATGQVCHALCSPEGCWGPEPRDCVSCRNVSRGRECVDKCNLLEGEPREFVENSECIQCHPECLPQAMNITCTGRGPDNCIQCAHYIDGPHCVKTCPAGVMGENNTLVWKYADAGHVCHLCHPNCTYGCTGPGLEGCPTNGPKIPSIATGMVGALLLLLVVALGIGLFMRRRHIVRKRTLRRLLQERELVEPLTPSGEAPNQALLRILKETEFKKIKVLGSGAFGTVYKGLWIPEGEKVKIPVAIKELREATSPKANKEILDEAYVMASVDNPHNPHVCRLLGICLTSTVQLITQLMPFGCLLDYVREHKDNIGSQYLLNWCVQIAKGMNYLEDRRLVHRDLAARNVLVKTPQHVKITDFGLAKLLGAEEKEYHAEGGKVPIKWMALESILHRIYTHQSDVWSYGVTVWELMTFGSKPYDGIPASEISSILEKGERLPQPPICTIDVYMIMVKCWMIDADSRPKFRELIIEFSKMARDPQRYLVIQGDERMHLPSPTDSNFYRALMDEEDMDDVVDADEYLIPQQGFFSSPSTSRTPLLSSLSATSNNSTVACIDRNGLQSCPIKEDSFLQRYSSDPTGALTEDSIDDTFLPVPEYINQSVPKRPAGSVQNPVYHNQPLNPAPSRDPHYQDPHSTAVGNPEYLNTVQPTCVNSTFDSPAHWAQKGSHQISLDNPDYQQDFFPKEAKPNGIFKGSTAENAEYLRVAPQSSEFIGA
Chain of EGFR (A767_dupASV) expressing Ba/F3 stable cell line (P00533 with tags, fused parts or gaps DUP767-769): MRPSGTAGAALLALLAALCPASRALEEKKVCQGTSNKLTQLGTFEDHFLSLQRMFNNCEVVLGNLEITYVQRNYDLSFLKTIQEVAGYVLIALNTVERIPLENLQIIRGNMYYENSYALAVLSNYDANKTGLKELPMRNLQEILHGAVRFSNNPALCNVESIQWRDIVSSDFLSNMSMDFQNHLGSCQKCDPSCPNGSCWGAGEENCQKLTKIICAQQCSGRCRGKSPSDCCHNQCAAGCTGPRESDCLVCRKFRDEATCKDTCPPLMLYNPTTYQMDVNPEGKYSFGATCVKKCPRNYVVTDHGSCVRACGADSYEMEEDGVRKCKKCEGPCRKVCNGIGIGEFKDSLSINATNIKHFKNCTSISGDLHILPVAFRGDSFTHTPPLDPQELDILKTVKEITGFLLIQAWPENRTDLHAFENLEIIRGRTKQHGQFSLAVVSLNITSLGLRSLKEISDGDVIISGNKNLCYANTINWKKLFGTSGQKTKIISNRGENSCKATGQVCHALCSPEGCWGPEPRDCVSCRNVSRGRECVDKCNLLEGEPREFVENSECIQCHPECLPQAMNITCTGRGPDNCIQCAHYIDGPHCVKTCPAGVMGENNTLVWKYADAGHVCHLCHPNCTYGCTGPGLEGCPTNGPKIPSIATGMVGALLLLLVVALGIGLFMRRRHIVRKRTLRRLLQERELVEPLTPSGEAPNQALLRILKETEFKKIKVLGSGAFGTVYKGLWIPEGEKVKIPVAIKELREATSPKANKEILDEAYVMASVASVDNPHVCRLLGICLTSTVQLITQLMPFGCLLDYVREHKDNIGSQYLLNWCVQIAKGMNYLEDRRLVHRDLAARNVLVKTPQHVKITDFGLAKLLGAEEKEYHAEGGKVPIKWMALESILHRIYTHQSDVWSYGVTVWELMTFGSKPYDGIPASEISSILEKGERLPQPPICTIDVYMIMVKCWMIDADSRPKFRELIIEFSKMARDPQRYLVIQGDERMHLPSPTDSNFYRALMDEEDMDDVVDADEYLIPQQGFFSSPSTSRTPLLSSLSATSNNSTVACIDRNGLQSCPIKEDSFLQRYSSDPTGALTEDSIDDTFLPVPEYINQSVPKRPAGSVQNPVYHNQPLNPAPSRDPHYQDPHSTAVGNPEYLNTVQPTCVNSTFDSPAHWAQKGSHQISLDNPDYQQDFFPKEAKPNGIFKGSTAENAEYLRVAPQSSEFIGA
Chain of HER2 (A775_G776insYVMA) expressing Ba/F3 stable cell line (P04626 with tags, fused parts or gaps DUP772-775): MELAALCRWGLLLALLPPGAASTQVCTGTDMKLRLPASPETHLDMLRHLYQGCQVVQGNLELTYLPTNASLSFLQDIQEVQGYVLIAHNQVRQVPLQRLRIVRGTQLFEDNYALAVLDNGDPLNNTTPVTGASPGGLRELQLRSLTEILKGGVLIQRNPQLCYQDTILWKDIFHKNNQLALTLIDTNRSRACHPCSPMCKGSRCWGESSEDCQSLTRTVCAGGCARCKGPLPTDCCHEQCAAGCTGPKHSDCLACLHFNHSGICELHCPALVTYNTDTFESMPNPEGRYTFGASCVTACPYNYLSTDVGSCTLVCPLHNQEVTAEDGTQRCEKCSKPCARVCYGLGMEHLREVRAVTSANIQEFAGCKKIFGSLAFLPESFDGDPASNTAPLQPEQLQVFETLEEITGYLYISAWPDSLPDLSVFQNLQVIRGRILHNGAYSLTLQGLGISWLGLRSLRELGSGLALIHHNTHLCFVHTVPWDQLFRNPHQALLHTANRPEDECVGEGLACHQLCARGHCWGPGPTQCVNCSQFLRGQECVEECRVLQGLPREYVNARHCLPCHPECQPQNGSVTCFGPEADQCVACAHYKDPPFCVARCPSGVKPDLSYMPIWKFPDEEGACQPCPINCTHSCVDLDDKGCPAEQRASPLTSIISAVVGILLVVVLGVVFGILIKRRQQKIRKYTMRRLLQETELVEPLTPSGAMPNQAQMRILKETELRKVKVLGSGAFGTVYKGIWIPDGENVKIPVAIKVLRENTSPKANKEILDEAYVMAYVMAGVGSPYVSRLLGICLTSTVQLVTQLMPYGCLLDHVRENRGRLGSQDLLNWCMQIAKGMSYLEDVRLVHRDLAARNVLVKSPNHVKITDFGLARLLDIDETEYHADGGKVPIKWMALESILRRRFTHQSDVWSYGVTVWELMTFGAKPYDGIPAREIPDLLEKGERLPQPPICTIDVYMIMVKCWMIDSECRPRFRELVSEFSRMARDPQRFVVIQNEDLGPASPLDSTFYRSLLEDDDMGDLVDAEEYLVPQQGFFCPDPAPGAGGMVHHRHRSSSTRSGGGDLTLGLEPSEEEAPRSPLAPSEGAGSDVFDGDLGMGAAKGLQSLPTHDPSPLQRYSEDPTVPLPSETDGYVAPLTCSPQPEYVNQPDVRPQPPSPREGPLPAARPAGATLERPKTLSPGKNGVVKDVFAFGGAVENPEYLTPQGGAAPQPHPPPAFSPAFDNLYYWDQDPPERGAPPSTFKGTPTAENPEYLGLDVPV
Chain of EGFR(D770_N771insSVD) expressing Ba/F3 stable cell line (P00533 with tags, fused parts or gaps DUP768-770): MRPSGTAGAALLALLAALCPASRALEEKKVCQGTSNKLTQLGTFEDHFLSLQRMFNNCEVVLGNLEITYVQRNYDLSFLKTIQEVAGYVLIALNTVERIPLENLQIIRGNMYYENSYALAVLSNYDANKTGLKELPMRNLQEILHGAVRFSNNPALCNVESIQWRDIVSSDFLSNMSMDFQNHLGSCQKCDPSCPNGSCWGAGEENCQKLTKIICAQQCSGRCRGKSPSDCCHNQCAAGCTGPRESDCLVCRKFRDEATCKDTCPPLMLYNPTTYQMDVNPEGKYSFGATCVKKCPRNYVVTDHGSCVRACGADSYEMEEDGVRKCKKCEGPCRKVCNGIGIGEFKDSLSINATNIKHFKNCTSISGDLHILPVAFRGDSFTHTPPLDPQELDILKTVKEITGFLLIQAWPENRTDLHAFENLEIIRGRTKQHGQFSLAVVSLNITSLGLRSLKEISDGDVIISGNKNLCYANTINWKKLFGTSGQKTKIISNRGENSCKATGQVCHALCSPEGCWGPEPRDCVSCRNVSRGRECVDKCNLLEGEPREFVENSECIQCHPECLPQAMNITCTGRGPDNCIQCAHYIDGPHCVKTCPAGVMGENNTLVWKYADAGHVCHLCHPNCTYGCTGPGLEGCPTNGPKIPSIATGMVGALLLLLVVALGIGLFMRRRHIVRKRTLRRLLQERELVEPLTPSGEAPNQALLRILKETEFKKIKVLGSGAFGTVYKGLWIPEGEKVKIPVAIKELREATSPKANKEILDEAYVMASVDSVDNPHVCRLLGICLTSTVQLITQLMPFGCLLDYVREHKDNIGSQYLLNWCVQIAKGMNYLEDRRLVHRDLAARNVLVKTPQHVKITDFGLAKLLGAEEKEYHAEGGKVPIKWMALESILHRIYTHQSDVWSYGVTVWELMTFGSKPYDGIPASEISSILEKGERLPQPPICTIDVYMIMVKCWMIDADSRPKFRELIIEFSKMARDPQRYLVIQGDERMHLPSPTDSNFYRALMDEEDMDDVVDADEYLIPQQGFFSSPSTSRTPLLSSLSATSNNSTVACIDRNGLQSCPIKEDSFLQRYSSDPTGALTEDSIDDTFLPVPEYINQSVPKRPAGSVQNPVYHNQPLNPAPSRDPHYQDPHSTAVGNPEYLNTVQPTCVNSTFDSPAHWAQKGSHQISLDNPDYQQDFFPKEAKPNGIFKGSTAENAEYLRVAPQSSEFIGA

The pIC50 is the negative decadic logarithm of the IC50, by convention in mol/L. Take `C=CC(=O)Nc1ccc(F)c(Nc2nc(Nc3cnn(C)c3)ncc2-c2cc(F)ccc2Cl)c1` [Compound 11, N-(3-((5-(2-chloro-5-fluorophenyl)-2-((1-methyl-1H-pyrazol-4-yl)amino)pyrimidin-4-yl)amino)-4-fluorophenyl)acrylamide]: in the experiment with A431 cells, the pIC50 was 5.71. In addition, the GI50 in experiment [1] is 194 nM; in experiment [2], 1070 nM; in experiment [3], 262 nM; in experiment [4] it was 124 nM.

With `C=CC(=O)Nc1ccc(F)c(Nc2nc(Nc3cnn(CCN(C)C)c3)ncc2-c2ccc(Cl)c(Cl)c2)c1` [Compound 58, N-(3-((5-(3,4-dichlorophenyl)-2-((1-(2-(dimethylamino)ethyl)-1H-pyrazol-4-yl)amino)pyrimidin-4-yl)amino)-4-fluorophenyl)acrylamide], in the experiment on A431 cells, the negative logarithm of the IC50 (pIC50) is 7.07. The GI50 in experiment [1] is 130 nM; in experiment [2], 100 nM; in experiment [3], 257 nM; in experiment [4] it was 214 nM.

Turning to `C=CC(=O)Nc1ccc(F)c(Nc2nc(Nc3cnn(C)c3)ncc2-c2ccc(F)c(Br)c2)c1` [Compound 18, N-(3-((5-(3-bromo-4-fluorophenyl)-2-((1-methyl-1H-pyrazol-4-yl)amino)pyrimidin-4-yl)amino)-4-fluorophenyl)acrylamide trifluoroacetate], the pIC50 with A431 cells was 6.60. Further, the GI50 amounted to 113 nM in experiment [1], 220 nM in experiment [2], 166 nM in experiment [3] and 56 nM in experiment [4].

In the case of `C=CC(=O)Nc1ccc(F)c(Nc2nc(Nc3cnn(C)c3)ncc2-c2ccc(Cl)c(F)c2)c1` [Compound 33, N-(3-((5-(4-chloro-3-fluorophenyl)-2-((1-methyl-1H-pyrazol-4-yl)amino)pyrimidin-4-yl)amino)-4-fluorophenyl)acrylamide], the pIC50 in the experiment with A431 cells was 7.46. Also, the GI50 in experiment [1] amounted to 20 nM; in experiment [2] it was 73 nM; in experiment [3], 21 nM; in experiment [4], 52 nM.

For `C=CC(=O)Nc1ccc(F)c(Nc2nc(Nc3cnn(CCO)c3)ncc2-c2ccc(Br)c(F)c2)c1` [Compound 96, N-(3-((5-(4-bromo-3-fluorophenyl)-2-((1-(2-hydroxyethyl)-1H-pyrazol-4-yl)amino)pyrimidin-4-yl)amino)-4-fluorophenyl)acrylamide], the negative logarithm of the IC50 (pIC50) in the experiment with A431 cells is 7.43. Further, the GI50 is 25 nM in experiment [1], 56 nM in experiment [2], 28 nM in experiment [3] and 96 nM in experiment [4].

Consider `C=CC(=O)Nc1cccc(Nc2nc(Nc3cnn(C)c3)ncc2-c2cc(F)cc(C(F)F)c2)c1` [Compound 43, N-(3-((5-(3-(difluoromethyl)-5-fluorophenyl)-2-((1-methyl-1H-pyrazol-4-yl)amino)pyrimidin-4-yl)amino)phenyl)acrylamide], for which the pIC50 with A431 cells was 6.15. For the same compound, the GI50 came out at 35 nM in experiment [1], 84 nM in experiment [2], 41 nM in experiment [3] and 24 nM in experiment [4].

With `C=CC(=O)Nc1ccc(F)c(Nc2nc(Nc3cnn(C)c3)ncc2-c2ccc(C(F)(F)F)c(Cl)c2)c1` [Compound 54, N-(3-((5-(3-chloro-4-(trifluoromethyl)phenyl)-2-((1-methyl-1H-pyrazol-4-yl)amino)pyrimidin-4-yl)amino)-4-fluorophenyl)acrylamide], the GI50 stood at 85 nM in experiment [1], 260 nM in experiment [2], 184 nM in experiment [3] and 186 nM in experiment [4].

Take `C=CC(=O)Nc1ccc(F)c(Nc2nc(Nc3cnn(C)c3)ncc2-c2ccc(C3=CCN(C)CC3)c(F)c2)c1` [Compound 55, N-(4-fluoro-3-((5-(3-fluoro-4-(1-methyl-1,2,3,6-tetrahydropyridin-4-yl)phenyl)-2-((1-methyl-1H-pyrazol-4-yl)amino)pyrimidin-4-yl)amino)phenyl)acrylamide]: the pIC50 in the experiment with A431 cells was 5.65. In addition, the GI50 in experiment [1] worked out at 2240 nM; in experiment [3] it was 800 nM; in experiment [4] it was 3640 nM.
